Assay results published in US20190091259A1, “Selective Chemotherapy Treatments and Diagnostic Methods Related Thereto” (Emory University, priority 2014, published 2019).

Experiments:
PARylated proteins = assay: Level of PARylated proteins in treated cells; format: cell-based; conditions: veliparib 5 μmol/L
[1] = Veliparib pharmacokinetic and platinum adducts in tumor-bearing animals; format: in vivo
Protocol: Treated animals were sacrificed either at 1 or 24 h posttreatment by cervical dislocation. Plasma and tumor samples were collected and immediately stored in liquid phase nitrogen or at −70° C. until ready for analysis. Tissues were homogenized in approximately 1 mL of PBS. Veliparib concentrations in plasma and tissue homogenates were quantitated by LC-MS. Concentrations of total platinum in plasma and tissue homogenate were quantitated by atomic absorption spectrophotometry (AAS).

H146 xenografts = format: in vivo
SCLC cell lines [2] = assay: Short-term MTS cytotoxicity assay in a panel of 9 SCLC cell lines; conditions: for single-agent growth inhibition: veliparib 0-128 μmol/L, panel of 9 SCLC cell lines
H146 = assay: In vitro cytotoxicity assay, cisplatin sensitivity, H146; format: cell-based; conditions: H146 cell line; read-out: IC50 concentration
H128 = assay: In vitro cytotoxicity assay, cisplatin sensitivity, H128; format: cell-based; conditions: H128 cell line; read-out: IC50 concentration
SCLC cell lines [3] = tested on: SCLC cell lines

C[C@]1(c2nc3c(C(N)=O)cccc3[nH]2)CCCN1 [veliparib]
level of PARylated proteins in cells (PARylated proteins): significant reduction
intratumoral platinum concentration ([1]; in the presence of veliparib): Increased intratumoral platinum concentration
intratumoral veliparib concentration sufficient for in vivo potentiation of the antitumor effect of cisplatin ([1]; tumor): 2 µmol/L
dose dependence of the potentiating effect of veliparib when combined with cisplatin (H146 xenografts; FIG. 2B): appeared dose dependent
toxicity as indicated by the measured weight of the animals (H146 xenografts; veliparib combined with cisplatin): without additive toxicity
single-agent growth inhibition (SCLC cell lines [2]): limited single-agent activity
single-agent growth inhibition (SCLC cell lines [2]; listed as Veliparib): limited growth inhibition
potentiated the activity of cisplatin, carboplatin, and etoposide (SCLC cell lines [2]; veliparib 5 μmol/L): not

N.N.[Cl][Pt][Cl] [cisplatin]
IC50 (H146): 5.2 µM
IC50 (H128): 14.5 µM

COc1cc([C@@H]2c3cc4c(cc3[C@@H](O[C@@H]3O[C@@H]5CO[C@@H](C)O[C@H]5[C@H](O)[C@H]3O)[C@H]3COC(=O)[C@H]23)OCO4)cc(OC)c1O [etoposide]
correlation (CC) of the magnitude of potentiation by veliparib and the sensitivity of the cell line to the cytotoxic agent (single agent IC50) (SCLC cell lines [3]): 0.24
